Results taken from the NIST ThermoML archive (doi:10.1016/j.jct.2005.04.010).
± gives the expanded uncertainty stated by the source.

Assay: activity coefficient (dimensionless); of the first substance listed, at infinite dilution; xn = mol fraction of the nth substance listed
Details: Liquid, x1 = 0

Row | Compound | activity coefficient (303.15 K, dilutor) | activity coefficient (313.15 K, dilutor) | activity coefficient (323.15 K, dilutor) | activity coefficient (333.15 K, dilutor) | activity coefficient (303.15 K, Chromatography) | activity coefficient (313.15 K, Chromatography) | activity coefficient (323.15 K, Chromatography) | activity coefficient (333.15 K, Chromatography)
1 | CCCCCCCC [octane] + CCCC[N+]1(C)CCCC1.O=S(=O)([N-]S(=O)(=O)C(F)(F)F)C(F)(F)F | 28.3 ± 1.4 | 26.5 ± 1.3 | 25.2 ± 1.3 | 23.7 ± 1.2 | – | – | – | –
2 | c1ccccc1 [benzene] + CCCC[N+]1(C)CCCC1.O=S(=O)([N-]S(=O)(=O)C(F)(F)F)C(F)(F)F | 0.84 ± 0.04 | 0.86 ± 0.04 | 0.88 ± 0.04 | 0.89 ± 0.04 | – | – | – | –
3 | CCC(C)=O [butanone] + CCCC[N+]1(C)CCCC1.O=S(=O)([N-]S(=O)(=O)C(F)(F)F)C(F)(F)F | 0.52 ± 0.03 | 0.53 ± 0.03 | 0.55 ± 0.03 | 0.56 ± 0.03 | – | – | – | –
4 | C1CCCC1 [cyclopentane] + CCCC[N+]1(C)CCCC1.O=S(=O)([N-]S(=O)(=O)C(F)(F)F)C(F)(F)F | 6.14 ± 0.31 | 5.7 ± 0.29 | 5.41 ± 0.27 | 5.12 ± 0.26 | – | – | – | –
5 | CC(C)O [propan-2-ol] + CCCC[N+]1(C)CCCC1.O=S(=O)([N-]S(=O)(=O)C(F)(F)F)C(F)(F)F | 2.11 ± 0.11 | 1.92 ± 0.1 | 1.77 ± 0.09 | 1.63 ± 0.08 | – | – | – | –
6 | C=CCCC [1-pentene] + CCCCCC[n+]1ccn(C)c1.O=S(=O)([N-]S(=O)(=O)C(F)(F)F)C(F)(F)F | 3.36 ± 0.17 | 3.33 ± 0.17 | 3.3 ± 0.17 | 3.23 ± 0.16 | 3.47 ± 0.16 | 3.4 ± 0.15 | 3.3 ± 0.15 | 3.31 ± 0.15
7 | C1CCCC1 [cyclopentane] + CCCCCC[n+]1ccn(C)c1.O=S(=O)([N-]S(=O)(=O)C(F)(F)F)C(F)(F)F | 3.64 ± 0.18 | 3.48 ± 0.17 | 3.27 ± 0.16 | 3.26 ± 0.16 | – | – | – | –
8 | C1CCCCC1 [cyclohexane] + CCCCCC[n+]1ccn(C)c1.O=S(=O)([N-]S(=O)(=O)C(F)(F)F)C(F)(F)F | 5.29 ± 0.26 | 5.01 ± 0.25 | 4.78 ± 0.24 | 4.68 ± 0.23 | 5.48 ± 0.25 | 5.15 ± 0.24 | 4.9 ± 0.22 | 4.75 ± 0.22
9 | C1CCCCC1 [cyclohexane] + CCCCCCCCn1cc[n+](C)c1.O=S(=O)([N-]S(=O)(=O)C(F)(F)F)C(F)(F)F | 3.67 ± 0.18 | 3.59 ± 0.18 | 3.48 ± 0.17 | 3.39 ± 0.17 | 3.64 ± 0.17 | 3.52 ± 0.16 | 3.36 ± 0.15 | 3.29 ± 0.15
10 | Cc1ccc(C)cc1 [1,4-dimethylbenzene] + CCCCCC[n+]1ccn(C)c1.O=S(=O)([N-]S(=O)(=O)C(F)(F)F)C(F)(F)F | – | – | – | – | 1.42 ± 0.05 | 1.42 ± 0.05 | 1.48 ± 0.06 | 1.51 ± 0.06
11 | CO [methanol] + CCCCCC[n+]1ccn(C)c1.O=S(=O)([N-]S(=O)(=O)C(F)(F)F)C(F)(F)F | – | 1.16 ± 0.06 | 1.14 ± 0.06 | 1.05 ± 0.05 | 1.3 ± 0.04 | 1.19 ± 0.04 | 1.1 ± 0.03 | 1.02 ± 0.03
12 | C=CCCCCCC [oct-1-ene] + CCCC[N+]1(C)CCCC1.O=S(=O)([N-]S(=O)(=O)C(F)(F)F)C(F)(F)F | 15 ± 0.8 | 13.9 ± 0.7 | 13.3 ± 0.7 | 13.2 ± 0.7 | – | – | – | –
13 | C1=CCCCC1 [cyclohexene] + CCCCCCCCn1cc[n+](C)c1.O=S(=O)([N-]S(=O)(=O)C(F)(F)F)C(F)(F)F | 2.44 ± 0.12 | 2.38 ± 0.12 | 2.33 ± 0.12 | 2.28 ± 0.11 | 2.41 ± 0.11 | 2.38 ± 0.11 | 2.31 ± 0.1 | 2.29 ± 0.1
14 | C=CCCCCCC [oct-1-ene] + CCCCCCCCn1cc[n+](C)c1.O=S(=O)([N-]S(=O)(=O)C(F)(F)F)C(F)(F)F | – | – | – | – | 5.57 ± 0.25 | 5.48 ± 0.25 | 5.32 ± 0.24 | 5.28 ± 0.24
15 | Cc1ccccc1 [toluene] + CCCCCC[n+]1ccn(C)c1.O=S(=O)([N-]S(=O)(=O)C(F)(F)F)C(F)(F)F | – | – | – | – | 1.01 ± 0.03 | 1.03 ± 0.03 | 1.05 ± 0.03 | 1.08 ± 0.03
16 | CCCCCCC [heptane] + CCCCCCCCn1cc[n+](C)c1.O=S(=O)([N-]S(=O)(=O)C(F)(F)F)C(F)(F)F | 7.01 ± 0.35 | 6.81 ± 0.34 | 6.57 ± 0.33 | 6.4 ± 0.32 | 6.82 ± 0.31 | 6.55 ± 0.3 | 6.38 ± 0.29 | 6.21 ± 0.28
17 | CCOC(C)(C)C [2-ethoxy-2-methylpropane] + CCCCCC[n+]1ccn(C)c1.O=S(=O)([N-]S(=O)(=O)C(F)(F)F)C(F)(F)F | – | – | – | – | 2.69 ± 0.12 | 2.74 ± 0.12 | 2.76 ± 0.13 | 2.82 ± 0.13

Row | Compound | activity coefficient (303.15 K, dilutor) | activity coefficient (313.15 K, dilutor) | activity coefficient (323.15 K, dilutor) | activity coefficient (333.15 K, dilutor) | activity coefficient (303.15 K, Chromatography) | activity coefficient (313.15 K, Chromatography) | activity coefficient (323.15 K, Chromatography) | activity coefficient (333.15 K, Chromatography)
18 | C=CCCCC [hex-1-ene] + CCCCCCCCn1cc[n+](C)c1.O=S(=O)([N-]S(=O)(=O)C(F)(F)F)C(F)(F)F | 3.33 ± 0.17 | 3.3 ± 0.17 | 3.27 ± 0.16 | 3.23 ± 0.16 | 3.29 ± 0.15 | 3.27 ± 0.15 | 3.18 ± 0.14 | 3.18 ± 0.14
19 | Cc1cccc(C)c1 [1,3-dimethylbenzene] + CCCCCCCCn1cc[n+](C)c1.O=S(=O)([N-]S(=O)(=O)C(F)(F)F)C(F)(F)F | – | – | – | – | 1.13 ± 0.03 | 1.15 ± 0.04 | 1.17 ± 0.04 | 1.19 ± 0.04
20 | C=CCCC [1-pentene] + CCCCCCCCn1cc[n+](C)c1.O=S(=O)([N-]S(=O)(=O)C(F)(F)F)C(F)(F)F | 2.54 ± 0.13 | 2.53 ± 0.13 | 2.53 ± 0.13 | 2.52 ± 0.13 | 2.52 ± 0.11 | 2.53 ± 0.11 | 2.46 ± 0.11 | 2.45 ± 0.11
21 | c1ccccc1 [benzene] + CCCCCCCCn1cc[n+](C)c1.O=S(=O)([N-]S(=O)(=O)C(F)(F)F)C(F)(F)F | – | – | – | – | 0.63 ± 0.03 | 0.65 ± 0.03 | 0.65 ± 0.03 | 0.66 ± 0.03
22 | C=CCCCCC [1-heptene] + CCCCCCCCn1cc[n+](C)c1.O=S(=O)([N-]S(=O)(=O)C(F)(F)F)C(F)(F)F | 4.33 ± 0.22 | 4.26 ± 0.21 | 4.2 ± 0.21 | 4.15 ± 0.21 | 4.29 ± 0.2 | 4.23 ± 0.19 | 4.13 ± 0.19 | 4.13 ± 0.19
23 | CCO [ethanol] + CCCCCC[n+]1ccn(C)c1.O=S(=O)([N-]S(=O)(=O)C(F)(F)F)C(F)(F)F | – | – | – | – | 1.6 ± 0.06 | 1.47 ± 0.06 | 1.36 ± 0.05 | 1.27 ± 0.04
24 | CCCC(C)=O [pentan-2-one] + CCCCCC[n+]1ccn(C)c1.O=S(=O)([N-]S(=O)(=O)C(F)(F)F)C(F)(F)F | – | – | – | – | 0.51 ± 0.03 | 0.52 ± 0.03 | 0.54 ± 0.03 | 0.55 ± 0.03
25 | CO [methanol] + CCCCCCCCn1cc[n+](C)c1.O=S(=O)([N-]S(=O)(=O)C(F)(F)F)C(F)(F)F | – | – | – | – | 1.23 ± 0.04 | 1.14 ± 0.03 | 1.03 ± 0.03 | 0.96 ± 0.03
26 | CCCCCC [hexane] + CCCC[N+]1(C)CCCC1.O=S(=O)([N-]S(=O)(=O)C(F)(F)F)C(F)(F)F | 13.8 ± 0.7 | 13.3 ± 0.7 | 12.1 ± 0.6 | 11 ± 0.6 | – | – | – | –
27 | CC(C)O [propan-2-ol] + CCCCCC[n+]1ccn(C)c1.O=S(=O)([N-]S(=O)(=O)C(F)(F)F)C(F)(F)F | 1.72 ± 0.09 | – | 1.37 ± 0.07 | 1.23 ± 0.06 | 1.71 ± 0.07 | – | 1.44 ± 0.05 | 1.33 ± 0.05
28 | C1=CCCCC1 [cyclohexene] + CCCCCC[n+]1ccn(C)c1.O=S(=O)([N-]S(=O)(=O)C(F)(F)F)C(F)(F)F | 3.2 ± 0.16 | 3.15 ± 0.16 | 3.07 ± 0.15 | 3.01 ± 0.15 | 3.42 ± 0.16 | 3.28 ± 0.15 | 3.18 ± 0.14 | 3.14 ± 0.14
29 | CCCCCCCC [octane] + CCCCCC[n+]1ccn(C)c1.O=S(=O)([N-]S(=O)(=O)C(F)(F)F)C(F)(F)F | 14.4 ± 0.7 | 14.1 ± 0.7 | 13.1 ± 0.7 | 12.8 ± 0.6 | 15.2 ± 0.7 | 14.3 ± 0.7 | 13.5 ± 0.6 | 13 ± 0.6
30 | C=CCCCC [hex-1-ene] + CCCC[N+]1(C)CCCC1.O=S(=O)([N-]S(=O)(=O)C(F)(F)F)C(F)(F)F | 7.08 ± 0.35 | 6.92 ± 0.35 | 6.82 ± 0.34 | 6.64 ± 0.33 | – | – | – | –
31 | Cc1ccc(C)cc1 [1,4-dimethylbenzene] + CCCCCCCCn1cc[n+](C)c1.O=S(=O)([N-]S(=O)(=O)C(F)(F)F)C(F)(F)F | – | – | – | – | 1.11 ± 0.03 | 1.13 ± 0.03 | 1.16 ± 0.04 | 1.16 ± 0.04
32 | C1=CCCC1 [cyclopentene] + CCCCCCCCn1cc[n+](C)c1.O=S(=O)([N-]S(=O)(=O)C(F)(F)F)C(F)(F)F | 1.86 ± 0.09 | 1.84 ± 0.09 | 1.81 ± 0.09 | 1.78 ± 0.09 | – | – | – | –
33 | CCCCC [pentane] + CCCCCC[n+]1ccn(C)c1.O=S(=O)([N-]S(=O)(=O)C(F)(F)F)C(F)(F)F | 5.93 ± 0.3 | 5.67 ± 0.28 | 5.48 ± 0.27 | 5.27 ± 0.26 | 5.95 ± 0.27 | 5.76 ± 0.26 | 5.65 ± 0.26 | 5.52 ± 0.25
34 | c1ccccc1 [benzene] + CCCCCC[n+]1ccn(C)c1.O=S(=O)([N-]S(=O)(=O)C(F)(F)F)C(F)(F)F | – | – | – | – | 0.75 ± 0.03 | 0.76 ± 0.03 | 0.78 ± 0.03 | 0.79 ± 0.03
